Data reported in ChEMBL document CHEMBL1201862, “PubChem BioAssay data set” (2004).
Calls of active or inactive are those of the source.

What was measured:
[1] = general cell-killing toxicity readout – plate reader, dry powder samples, cytotoxicity control for PAX8 inhibitor project, dose response (AID 743021); format: functional, cell-based
Bcl-2-related protein A1 = target: T1, Bcl-2-related protein A1 (Mus musculus, UniProt Q07440); format: functional;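 also: confirmatory dose–response counterscreen on Bfl-1, used to check hits from a UBC13 polyubiquitin inhibitor campaign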
T1 sequence (Q07440 whole entry): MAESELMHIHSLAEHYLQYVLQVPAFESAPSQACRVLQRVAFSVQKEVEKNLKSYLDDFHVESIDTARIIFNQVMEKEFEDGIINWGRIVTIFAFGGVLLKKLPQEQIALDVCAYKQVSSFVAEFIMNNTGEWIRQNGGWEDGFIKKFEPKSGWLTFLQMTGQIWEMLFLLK

[2] = NIH-3T3 fibroblast cytotoxicity, dose response, cytotoxicity control, cell-based, fluorescence, Alamar Blue, secondary assay (AID 2327); format: functional;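 also: NIH-3T3 mouse fibroblasts cultured with fluconazole at 8 µg/mL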
[3] = Luminescence Cell-Based Dose Retest to Confirm Inhibitors of Cancer Stem Cells. [Related pubchem assays (depositor defined):AID2717, AID2721]; format: functional; settings: Homo sapiens
[4] = fluconazole-exposed Candida albicans growth modulators – fluorescence, retest, confirmation (AID 2467); format: functional, cell-based
[5] = target: T2, DNA repair protein RAD52 homolog (Homo sapiens, UniProt P43351); format: functional, biochemical
T2 sequence (P43351 whole entry): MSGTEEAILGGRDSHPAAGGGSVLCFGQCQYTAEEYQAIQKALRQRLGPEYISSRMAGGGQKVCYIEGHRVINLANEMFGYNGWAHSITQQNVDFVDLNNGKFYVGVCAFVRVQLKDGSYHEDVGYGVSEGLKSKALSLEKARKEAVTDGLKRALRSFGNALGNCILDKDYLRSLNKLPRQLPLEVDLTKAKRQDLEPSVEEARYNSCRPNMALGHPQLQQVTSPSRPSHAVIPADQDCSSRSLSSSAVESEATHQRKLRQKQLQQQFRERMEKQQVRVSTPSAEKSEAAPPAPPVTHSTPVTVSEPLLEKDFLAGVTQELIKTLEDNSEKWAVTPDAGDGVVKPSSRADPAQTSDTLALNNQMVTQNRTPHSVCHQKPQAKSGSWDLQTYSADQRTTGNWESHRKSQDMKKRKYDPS

[6] = target: T3, Ubiquitin-conjugating enzyme E2 N (Homo sapiens, UniProt P61088); format: functional
T3 sequence (P61088 whole entry): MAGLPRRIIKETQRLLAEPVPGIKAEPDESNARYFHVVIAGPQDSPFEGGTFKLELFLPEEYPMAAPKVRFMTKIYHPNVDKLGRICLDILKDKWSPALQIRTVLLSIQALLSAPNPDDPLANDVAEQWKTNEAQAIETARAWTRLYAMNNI

[7] = target: T3, Ubiquitin-conjugating enzyme E2 N; format: functional; remark: listed apart in the source
Paired box protein Pax-8 = Paired box protein Pax-8 (Homo sapiens, UniProt Q06710); assay: PAX8 transcriptional activity inhibition in RMG-I – RMG-I cells, luciferase, cherry-pick, dose response (AID 687027); format: functional, cell-based;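 also: luciferase reporter driven by Pax8 target thyroperoxidase promoter measured by SteadyGlo luminescence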
[8] = target: E3 ubiquitin-protein ligase Mdm2 (Homo sapiens, UniProt Q00987); assay: MDM2-luc reporter signal enhancers, multi-concentration potency testing, MDM2 ubiquitin-protein ligase inhibitor program, whole-cell format, luminescence detection, 384-well microplate (AID 1394); format: functional;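 also: MDM2 E3 inhibitors raise luminescence so EC50 is for signal enhancement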
[9] = HIV-1 Vif–A3G interaction blockers – biochemical, TR-FRET, GST-Vif 1-94, biotin-A3G peptide, dose response retest, primary screen (AID 1117319); format: functional;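 also: TR-FRET signal of purified GST-Vif binding a biotinylated A3G peptide; inhibitors lower the FRET signal by blocking Vif and A3G binding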
Hexokinase HKDC1 = target: T4, Hexokinase HKDC1 (Homo sapiens, UniProt Q2TB90); assay: inhibition of HKDC1 glucose phosphorylation – biochemical, W721R variant, dose response (AID 504729); format: functional
T4 sequence (Q2TB90 whole entry): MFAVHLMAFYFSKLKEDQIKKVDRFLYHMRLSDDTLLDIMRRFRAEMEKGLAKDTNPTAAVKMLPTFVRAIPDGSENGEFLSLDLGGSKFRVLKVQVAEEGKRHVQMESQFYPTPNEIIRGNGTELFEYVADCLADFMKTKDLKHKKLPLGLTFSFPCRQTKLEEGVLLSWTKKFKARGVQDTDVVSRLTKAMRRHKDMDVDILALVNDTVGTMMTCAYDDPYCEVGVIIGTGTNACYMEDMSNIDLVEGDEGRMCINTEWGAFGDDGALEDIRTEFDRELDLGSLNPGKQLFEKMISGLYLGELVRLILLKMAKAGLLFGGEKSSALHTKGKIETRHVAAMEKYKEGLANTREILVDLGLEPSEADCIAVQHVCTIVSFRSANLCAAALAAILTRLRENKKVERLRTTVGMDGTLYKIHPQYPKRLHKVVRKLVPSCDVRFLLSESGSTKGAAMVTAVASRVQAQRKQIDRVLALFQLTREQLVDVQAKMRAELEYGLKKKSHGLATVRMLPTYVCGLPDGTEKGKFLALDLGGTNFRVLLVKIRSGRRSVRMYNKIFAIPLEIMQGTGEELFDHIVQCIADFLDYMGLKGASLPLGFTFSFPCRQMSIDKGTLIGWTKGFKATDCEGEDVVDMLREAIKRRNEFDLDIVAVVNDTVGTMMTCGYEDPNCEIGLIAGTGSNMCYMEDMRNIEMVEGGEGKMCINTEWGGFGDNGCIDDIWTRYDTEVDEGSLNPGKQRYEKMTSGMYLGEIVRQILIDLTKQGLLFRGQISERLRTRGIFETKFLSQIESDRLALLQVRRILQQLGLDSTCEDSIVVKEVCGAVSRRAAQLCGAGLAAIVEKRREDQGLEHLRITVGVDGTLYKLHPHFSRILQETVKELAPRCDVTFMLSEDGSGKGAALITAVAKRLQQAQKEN

[10] = A Cell Based Secondary Assay To Explore Cytotoxicity of Compounds that Sensitize Mycobacterium Tuberculosis to Beta-Lactam Antibiotics.; format: functional
[11] = viability loss in HEK293 cells – cell-based, plate reader, cherry-picked samples, cytotoxicity control, dose response (AID 743446); format: functional
[12] = blockade of melanocortin 4 receptor signaling – cell-based, plate reader, cherry pick, counter-screen for LGR2 antagonist project, dose response (AID 743444); format: functional;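 also: transfected HEK 293 cells stimulated with alpha-MSH peptide; potency of inhibitors of the alpha-MSH evoked signal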
[13] = toxicity toward HepG2 liver cells – cell-based, plate reader, cherry-pick, antagonist series, cytotoxicity control, dose response (AID 743416); format: functional
[14] = A549 cell cytotoxicity, dose response, cytotoxicity control, plate reader, cherry-pick, antagonist series (AID 743412); format: functional, cell-based
[15] = blockers of bursicon-stimulated LGR2 cAMP reporter – cell-based, HEK293, CRE-luciferase reporter, cherry pick, set 2, dose response (AID 743343); format: functional;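 also: transfected cells were stimulated with diluted bursicon conditioned medium after compound addition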
BJ [16] = assay: BJ-TERT fibroblast viability loss – cell-based, RAS-independent, luminescence, dose response (AID 1933); format: functional; settings: Homo sapiens
BJ [17] = assay: cells; format: functional, cell-based; settings: Homo sapiens
[18] = luciferase reporter signal suppression in cells – H4 neuroglioma cells, luminescence, dose response (AID 1990); format: functional, cell-based
[19] = reduced cellular PGC1a acetyl-lysine signal – cell-based, cherry-picked samples, dose response (AID 720514); format: functional;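 also: potency may reflect raised or lowered acetylation signal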
[20] = alpha-synuclein stem-loop luciferase translation blockers – H4 neuroglioma cells, luminescence, confirmation (AID 1988); format: functional, cell-based
BJ [21] = assay: BJ-TERT-LT-ST fibroblast viability loss – cell-based, RAS-independent, luminescence, dose response (AID 1935); format: functional; settings: Homo sapiens;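 also: BJ fibroblasts immortalized with TERT plus LT and ST oncogenes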
[22] = Luminescence Cell-Based Dose Response HTS to Identify Inhibitors of 5'UTR Stem-Loop Driven Prion Protein mRNA Translation in H4 Neuroglioblastoma Cells. [Related pubchem assays: 1827 (Project Summary), 1813 (Primary HTS)]; format: functional
[23] = DRD fibroblast viability loss – cell-based, non-viral oncogenic, luminescence, dose response (AID 1934); format: functional; settings: Homo sapiens
Large T antigen = Large T antigen (Simian virus 40, UniProt P03070); format: functional, Betapolyomavirus macacae;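 also: Confirmatory-stage PubChem screen for compounds that inhibit SV40 T antigen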
[24] = Luminescence Cell-Based Dose Confirmation HTS to Identify Activators of 5'UTR Stem-Loop Driven Alpha-Synuclein mRNA Translation in H4 Neuroglioblastoma Cells. [Related pubchem assays: 1829 (Project Summary), 1814 (Primary HTS)]; format: functional
[25] = Luminescence Cell-Based Dose Response HTS to Identify Activators of Luciferase Translation or Activity in H4 […] Cells. [Related pubchem assays: 1829 (Project Summary), 1814 (Primary HTS)]; format: functional
H4 = assay: Luminescence Cell-Based Dose Response HTS to Identify Activators of 5'UTR Stem-Loop Driven Prion Protein mRNA Translation in H4 Neuroglioblastoma Cells. [Related pubchem assays: 1829 (Project Summary), 1814 (Primary HTS)]; format: functional; settings: Homo sapiens
[26] = target: Eukaryotic translation initiation factor 4E (Mus musculus, UniProt P63073); assay: blockers of eIF4G binding by eIF4E – biochemical, TR-FRET, dose response (AID 855); format: functional;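 also: potency for disrupting eIF4E binding to eIF4GI seen as loss of FRET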
[27] = off-target signal loss in HeLa-CEM21 co-culture – HeLa F-luc CTL cells, cherry-picked, counter-screen for HIV-1 Env fusion inhibitor project, dose response (AID 652040); format: functional, cell-based;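 also: potency for signal decrease marking cytotoxic or nonspecific inhibition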
[28] = viability loss in CEM21 cells – cell-based, CellTiter-Glo luminescence, cherry-picked, cytotoxicity control for viral fusion inhibitor project, dose response (AID 652042); format: functional;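 also: potency for signal decrease meaning cytotoxicity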
[29] = blockers of HIV-1 envelope-mediated cell-cell fusion – cherry-pick, dose response (AID 652057); format: functional, cell-based
[30] = HIV-1 AD8 envelope cell-cell fusion blockers – cherry-pick, dose response (AID 652062); format: functional, cell-based;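 also: luciferase signal from cell-cell fusion driven by HIV-1 clade B AD8 Env; potency is for inhibitors of fusion seen as a drop in luminescence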
[31] = P. falciparum Dd2 growth inhibitors, dose response, SYBR Green, cherry-picked samples (AID 1159567); format: functional, cell-based
[32] = toxicity to human hepatoma HepG2 cells – cell-based, cherry-picked samples, cytotoxicity control, dose response (AID 1159577); format: functional

Chain of E3 ubiquitin-protein ligase Mdm2 (Q00987 whole entry): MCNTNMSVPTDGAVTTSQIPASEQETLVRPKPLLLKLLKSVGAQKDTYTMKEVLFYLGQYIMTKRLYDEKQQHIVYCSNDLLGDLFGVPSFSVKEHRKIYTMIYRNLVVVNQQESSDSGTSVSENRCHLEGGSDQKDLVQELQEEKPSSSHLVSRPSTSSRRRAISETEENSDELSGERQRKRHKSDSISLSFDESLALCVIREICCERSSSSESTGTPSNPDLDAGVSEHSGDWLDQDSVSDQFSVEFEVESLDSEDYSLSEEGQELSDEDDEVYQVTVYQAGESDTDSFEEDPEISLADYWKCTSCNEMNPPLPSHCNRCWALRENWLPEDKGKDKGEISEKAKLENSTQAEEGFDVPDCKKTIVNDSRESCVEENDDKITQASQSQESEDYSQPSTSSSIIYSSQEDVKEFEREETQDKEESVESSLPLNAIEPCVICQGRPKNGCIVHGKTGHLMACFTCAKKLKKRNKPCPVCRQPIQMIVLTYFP
Chain of Large T antigen (P03070 whole entry): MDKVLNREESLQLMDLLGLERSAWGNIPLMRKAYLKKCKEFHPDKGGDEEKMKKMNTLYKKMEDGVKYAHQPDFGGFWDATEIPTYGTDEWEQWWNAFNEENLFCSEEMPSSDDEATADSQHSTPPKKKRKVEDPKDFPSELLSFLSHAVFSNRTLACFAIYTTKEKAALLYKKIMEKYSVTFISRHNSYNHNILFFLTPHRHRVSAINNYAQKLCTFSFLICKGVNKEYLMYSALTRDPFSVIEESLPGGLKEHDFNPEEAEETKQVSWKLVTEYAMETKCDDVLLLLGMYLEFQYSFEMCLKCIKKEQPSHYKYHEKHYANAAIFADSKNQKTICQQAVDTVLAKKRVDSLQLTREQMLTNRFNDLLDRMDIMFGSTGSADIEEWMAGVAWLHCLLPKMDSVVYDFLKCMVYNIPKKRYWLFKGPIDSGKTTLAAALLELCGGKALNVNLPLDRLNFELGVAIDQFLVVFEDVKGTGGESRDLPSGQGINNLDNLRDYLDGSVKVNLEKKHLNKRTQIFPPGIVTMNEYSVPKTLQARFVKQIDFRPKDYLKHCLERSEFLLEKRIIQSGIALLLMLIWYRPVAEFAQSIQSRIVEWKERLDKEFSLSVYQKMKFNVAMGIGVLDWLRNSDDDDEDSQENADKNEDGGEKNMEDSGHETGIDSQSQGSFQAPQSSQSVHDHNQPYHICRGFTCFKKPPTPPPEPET
Chain of Paired box protein Pax-8 (Q06710 whole entry): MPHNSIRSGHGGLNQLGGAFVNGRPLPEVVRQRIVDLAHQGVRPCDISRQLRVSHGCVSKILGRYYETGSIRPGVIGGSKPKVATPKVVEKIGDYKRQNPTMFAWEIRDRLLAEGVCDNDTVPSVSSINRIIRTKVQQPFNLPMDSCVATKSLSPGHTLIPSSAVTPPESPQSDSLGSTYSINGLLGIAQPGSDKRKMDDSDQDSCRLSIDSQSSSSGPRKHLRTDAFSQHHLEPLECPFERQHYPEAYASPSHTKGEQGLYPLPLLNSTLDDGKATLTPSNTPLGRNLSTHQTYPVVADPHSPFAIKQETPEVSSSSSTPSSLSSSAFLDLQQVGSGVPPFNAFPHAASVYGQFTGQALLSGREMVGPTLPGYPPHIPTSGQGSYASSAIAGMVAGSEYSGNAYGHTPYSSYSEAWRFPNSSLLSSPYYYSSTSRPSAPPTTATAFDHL
Chain of Eukaryotic translation initiation factor 4E (P63073 whole entry, the tested form may be a part): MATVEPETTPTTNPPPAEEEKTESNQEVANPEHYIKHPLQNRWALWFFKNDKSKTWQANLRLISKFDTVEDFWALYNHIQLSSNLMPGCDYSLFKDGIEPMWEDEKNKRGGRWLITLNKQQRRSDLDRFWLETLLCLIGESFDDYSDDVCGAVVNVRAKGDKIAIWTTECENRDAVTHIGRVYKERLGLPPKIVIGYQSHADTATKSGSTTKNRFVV

Compound: CN1CCN(CCCNC(=O)c2ccc(/C=C3\Oc4ccccc4N(Cc4ccc(Cl)cc4)C3=O)cc2)CC1
- AC50 [1]: 0.974 µM (active)
- IC50 (Bcl-2-related protein A1): > 20 µM (inactive)
- EC50 [2]: > 150 µM (inconclusive)
- AC50 [3]: 3.55 µM (active)
- EC50 [4]: > 38 µM (not active)
- AC50 [5]: 17.9 µM (active)
- IC50 [6]: 1.35 µM (active)
- IC50 [7]: 12.4 µM (active)
- AC50 (Paired box protein Pax-8): 16.9 µM (active)

Compound: O=C(O)c1ccc2c(c1)N(Cc1ccccc1F)C(=O)c1ccccc1[S+]2[O-] (stereo unspecified)
- EC50 [8]: 237 µM (not active)

Compound: Cc1ccc(CNC(=O)C2c3ccccc3C(=O)N3CCc4ccccc4C23)o1 (stereo unspecified)
- IC50 [9]: > 100 µM (active)

Compound: CCCc1nc2oc3c(NCC4CCCO4)ncnc3c2c2c1COC(C)(C)C2 (stereo unspecified)
- IC50 (Hexokinase HKDC1): 33.2 µM (inactive)

Compound: COc1cccc(OC)c1C(=O)NNC(=O)c1cccc(COc2ccc3c(c2)CCC3)c1
- EC50 [8]: 0.0021 µM (active)

Compound: COc1ccc(-c2csc(NC(CO)c3nc4ccccc4n3Cc3ccc(C)cc3)n2)cc1 (stereo unspecified)
- CC50 [10]: > 40 µM (active)

Compound: Cc1ccn2cc(-c3ccc(Br)cc3)nc2c1
- AC50 [11]: 42.6 µM (active)
- AC50 [12]: 2.76 µM (active)
- AC50 [13]: 49.2 µM (active)
- AC50 [14]: > 52 µM (inactive)
- AC50 [15]: 3.6 µM (active)

Compound: O=C(CN1CCN(c2ncccn2)CC1)NCc1ccccc1
- EC50 [8]: 34 µM (not active)

Compound: CCOc1ccc(N(CC(=O)Nc2ccccc2OC)S(=O)(=O)c2ccccc2)cc1
- EC50 (BJ [16]): 0.928 µM (active)
- EC50 (BJ [17]): 20.3 µM (active)
- EC50 [18]: 4.97 µM (active)
- AC50 [19]: 30.7 µM (active)
- EC50 [20]: 0.323 µM (active)
- EC50 (BJ [21]): 0.804 µM (active)
- EC50 [22]: 0.36 µM (active)
- EC50 [23]: 0.663 µM (active)

Compound: COc1cc([N+](=O)[O-])ccc1NC(=O)Oc1ccc(NC(C)=O)cc1
- IC50 (Large T antigen): 8.79 µM (active)
- IC50 [9]: > 100 µM (active)

Compound: Cc1ccc(NC2c3ncccc3C(=O)N2c2ccccc2C)cc1C (stereo unspecified)
- EC50 [24]: 12 µM (active)
- IC50 (Hexokinase HKDC1): 11.6 µM (active)
- EC50 [25]: 16.5 µM (active)
- EC50 (H4): 9.38 µM (active)
- IC50 [26]: 9.59 µM (active)

Compound: COc1ccc(CN2C(=O)c3cccnc3C2O)cc1 (stereo unspecified)
- IC50 (Hexokinase HKDC1): 21.5 µM (inactive)

Compound: CCOC(=O)c1cnc2ccc(OCC)cc2c1NCc1ccccc1OC
- AC50 [3]: 4.51 µM (active)
- AC50 [27]: 25.7 µM (active)
- AC50 [28]: 19.4 µM (active)
- AC50 [29]: 10.6 µM (active)
- AC50 [30]: 35.4 µM (active)

Compound: CN(C)c1nc(SCCOC(=O)COc2ccc(Cl)cc2Cl)nc(N(C)C)n1
- AC50 [19]: 26.1 µM (active)

Compound: OC[C@@H]1[C@@H](c2ccc(C#CC3CCCC3)cc2)[C@H]2CN(CCC(F)(F)F)CCCCN12
- AC50 [31]: 1.02 µM (active)
- AC50 [19]: 12.9 µM (active)
- AC50 [32]: 8.47 µM (active)

Compound: Cc1cc(/C=N/n2cnnc2)c(C)n1-c1cccc(Cl)c1
- IC50 [9]: > 100 µM (active)
